Experimental data taken from paper PMC9673926, “Nucleotide binding as an allosteric regulatory mechanism for Akkermansia muciniphila β-N-acetylhexosaminidase Am2136” (Gut Microbes, 2022).
Numbering of substitutions follows the chain as printed.

Columns and labels:
Am2136 WT = molecular target: T1, Am2136 WT (Akkermansia muciniphila, UniProt B2UPR7); assay: Enzyme activity assay (pNP-β-GlcNAc hydrolysis) regulated by nucleotides; format: biochemical
T1 construct: The coding region (residue Q20-L756) of Am2136 without signal peptide was based on UniProt; 6XHis (N); made in house; host or cells: E. coli BL21 (DE3)

Am2136 Y550A = molecular target: T2, Am2136 Y550A (Akkermansia muciniphila, UniProt B2UPR7, Y550A); assay: GDP regulated enzyme activity assay, mutant; details: 1 mM GDP, substrate pNP-β-GlcNAc
T2 sequence (B2UPR7 20-756 Y550A): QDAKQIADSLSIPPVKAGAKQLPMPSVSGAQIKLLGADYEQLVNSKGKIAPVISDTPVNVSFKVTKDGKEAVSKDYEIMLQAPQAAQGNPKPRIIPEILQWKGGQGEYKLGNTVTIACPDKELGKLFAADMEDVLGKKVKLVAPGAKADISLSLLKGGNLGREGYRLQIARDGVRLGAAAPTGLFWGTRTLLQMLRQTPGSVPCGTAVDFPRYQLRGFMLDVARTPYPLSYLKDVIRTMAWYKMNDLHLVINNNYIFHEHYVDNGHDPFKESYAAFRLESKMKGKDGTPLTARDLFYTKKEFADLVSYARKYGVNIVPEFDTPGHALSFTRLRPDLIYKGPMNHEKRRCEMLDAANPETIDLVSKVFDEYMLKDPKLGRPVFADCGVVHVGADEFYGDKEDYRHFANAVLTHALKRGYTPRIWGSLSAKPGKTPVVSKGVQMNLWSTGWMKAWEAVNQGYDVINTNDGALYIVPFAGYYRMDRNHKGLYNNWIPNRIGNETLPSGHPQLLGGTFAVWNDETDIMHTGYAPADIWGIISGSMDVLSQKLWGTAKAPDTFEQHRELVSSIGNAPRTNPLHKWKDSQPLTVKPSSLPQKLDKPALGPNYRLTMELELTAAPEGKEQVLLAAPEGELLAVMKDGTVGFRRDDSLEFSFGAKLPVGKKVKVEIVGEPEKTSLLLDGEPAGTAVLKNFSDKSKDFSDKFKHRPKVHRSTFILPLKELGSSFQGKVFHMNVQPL

Am2136 R256A = molecular target: T3, Am2136 R256A (Akkermansia muciniphila, UniProt B2UPR7, R256A); assay: GDP regulated enzyme activity assay, mutant; details: 1 mM GDP, substrate pNP-β-GlcNAc
T3 sequence (B2UPR7 20-756 R256A): T2 sequence (B2UPR7 20-756 Y550A) with R237A, A531Y

Am2136 P595A+H597A [1] = molecular target: T4, Am2136 P595A+H597A (Akkermansia muciniphila, UniProt B2UPR7, H597A/P595A); assay: GDP regulated enzyme activity assay, mutant; details: 1 mM GDP
T4 sequence (B2UPR7 20-756 P595A/H597A): T2 sequence (B2UPR7 20-756 Y550A) with A531Y, P576A, H578A

Am2136 P595A+H597A [2] = molecular target: T4, Am2136 P595A+H597A; assay: Nucleotide binding affinity by intrinsic fluorescence, mutant; design: The coding region (residue Q20-L756) of Am2136 without signal peptide was based on UniProt; 6XHis (N); made in house; host or cells: E. coli BL21 (DE3)
Procedure: The nucleotide binding ability was determined on Fluorescence Spectrometer Duetta (HORIBA) by measuring the change of peak intensity. The fluorescence was excited at 286 nm and emitted at 336 nm. And the measurement was processed under 400 V voltage with 2.5 nm excitation slit and 5 nm emission slit. The 120 μL reaction mixture contains 0–550 μM nucleotide, 5 μM proteins, 25 mM Tris pH 8.0 and 150 mM NaCl. The sample was incubated at 4°C for 5 min before testing.

T1 sequence (B2UPR7 20-756): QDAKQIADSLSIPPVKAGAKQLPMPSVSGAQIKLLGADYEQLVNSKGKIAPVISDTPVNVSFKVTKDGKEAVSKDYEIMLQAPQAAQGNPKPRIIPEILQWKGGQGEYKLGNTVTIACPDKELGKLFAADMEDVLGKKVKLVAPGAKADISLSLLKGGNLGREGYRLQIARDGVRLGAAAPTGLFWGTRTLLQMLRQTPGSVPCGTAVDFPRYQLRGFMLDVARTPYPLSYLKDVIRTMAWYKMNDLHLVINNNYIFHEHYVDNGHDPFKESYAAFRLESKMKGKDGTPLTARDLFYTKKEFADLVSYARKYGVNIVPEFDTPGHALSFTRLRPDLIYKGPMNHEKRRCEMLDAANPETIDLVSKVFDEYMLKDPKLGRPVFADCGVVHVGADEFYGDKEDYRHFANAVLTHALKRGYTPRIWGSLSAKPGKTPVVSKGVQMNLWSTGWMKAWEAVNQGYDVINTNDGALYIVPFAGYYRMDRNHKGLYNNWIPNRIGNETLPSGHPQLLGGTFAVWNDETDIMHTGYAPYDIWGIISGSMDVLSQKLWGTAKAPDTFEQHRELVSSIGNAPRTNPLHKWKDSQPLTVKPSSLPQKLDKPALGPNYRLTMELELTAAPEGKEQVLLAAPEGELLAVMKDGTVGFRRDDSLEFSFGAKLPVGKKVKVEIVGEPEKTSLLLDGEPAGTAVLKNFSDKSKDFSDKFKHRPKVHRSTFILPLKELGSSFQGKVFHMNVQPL

Nc1nc2c(ncn2[C@@H]2O[C@H](COP(=O)(O)OP(=O)(O)O)[C@@H](O)[C@H]2O)c(=O)[nH]1 [GDP]
maximal activation of Am2136 (Am2136 WT; 1 mM GDP): up to twofold | effect on Am2136 hydrolysis activity (Am2136 WT; GDP 0–2.65 mM, substrate pNP-β-GlcNAc): concentration-dependent enhancement | Vmax (Am2136 WT; WT, 1 mM nucleotide, substrate pNP-β-GlcNAc, 37°C): 442 ± 7 µmol/min | Vmax (Am2136 Y550A): 463 ± 7 µmol/min | Vmax (Am2136 R256A): 465 ± 15 µmol/min | Vmax (Am2136 P595A+H597A [1]; P595A+H597A, substrate pNP-β-GlcNAc): 447 ± 4 µmol/min | increase of kcat/Km with versus without GDP (Am2136 P595A+H597A [1]; P595A/H597A): roughly two-fold increase | Kd (Am2136 P595A+H597A [2]): 140 ± 4.26 µM
